Test results: patent US9952206B2, “Immunoassay for detecting kratom, its constituents and their use” (Randox Laboratories Limited, priority 2013, dated 2018)
In brackets after ≈: the same amount, converted by molar mass.

Tested on: antibodies of the invention (antisera generated in response to the immunogen of Example 4)
Test: Competitive chemiluminescent biochip immunoassay, standard curve generation using generated antiserum
Conditions: for IC50 (standard concentration which produces 50% B/B0): biochip-immobilised IgG fraction of antiserum, hapten-HRP conjugate of Example 5; for % CR (percentage cross-reactivity based on 100% specificity to mitragynine): relative to mitragynine = 100%

CCC1CN2CCc3c([nH]c4cccc(O)c34)C2CC1C(=COC)C(=O)OC [8-Desmethylmitragynine, (E)-2-[(2S,3S,12bS)-3-ethyl-8-hydroxy-1,2,3,4,6,7,12,12b-octahydroindolo[2,3-a]quinozilizin-2-yl]-3-methoxy propenoic acid methyl ester]
IC50 (standard concentration which produces 50% B/B0): 1.532 ng/mL (≈ 3.98 nM) | B/Bo (calibrator 0.313 ng/ml): 74% | B/Bo (calibrator 0.625 ng/ml): 63% | B/Bo (calibrator 1.250 ng/ml): 54% | B/Bo (calibrator 2.500 ng/ml): 42% | B/Bo (calibrator 5.000 ng/ml): 29% | B/Bo (calibrator 10.000 ng/ml): 18% | B/Bo (calibrator 20.000 ng/ml): 13% | % CR (percentage cross-reactivity based on 100% specificity to mitragynine): 77.87%

CC[C@@H]1CN2CCc3c([nH]c4cccc(OC)c34)[C@H]2C[C@@H]1/C(=C\OC)C(=O)OC (stereo in doubt) [Mitragynine, (E)-2-[(2S,3S,12bS)-3-ethyl-8-methoxy-1,2,3,4,6,7,12,12b-octahydroindolo[2,3-a]quinozilizin-2-yl]-3-methoxy propenoic acid methyl ester]
IC50 (standard concentration which produces 50% B/B0): 1.193 ng/mL (≈ 2.99 nM) | B/Bo (calibrator 0.313 ng/ml): 75% | B/Bo (calibrator 0.625 ng/ml): 63% | B/Bo (calibrator 1.250 ng/ml): 49% | B/Bo (calibrator 2.500 ng/ml): 37% | B/Bo (calibrator 5.000 ng/ml): 25% | B/Bo (calibrator 10.000 ng/ml): 17% | B/Bo (calibrator 20.000 ng/ml): 11% | % CR (percentage cross-reactivity based on 100% specificity to mitragynine): 100.00%
